From paper PMC9217999 (Targeted Oncology, 2022)
Marks after values point to notes of the source that are not given here.

Test system: relapsed/refractory solid tumors with known/expected MAPK pathway involvement
Test: Investigator-assessed anti-tumor activity in iMATRIX-cobi
Format: in vivo, human
[1] = Dose escalation PN in NF1 (n = 12)

SMILES: O=C(c1ccc(F)c(F)c1Nc1ccc(I)cc1F)N1CC(O)([C@@H]2CCCCN2)C1 [cobimetinib]
- Best overall response: CR (All LGG patients (n = 32)): 0 n (%)
- Best overall response: Non-CR/Non-PD (All LGG patients (n = 32)): 1 (3) n (%)
- Best overall response: Non-evaluable (All LGG patients (n = 32)): 1 (3) n (%)
- Best overall response: Not available (All LGG patients (n = 32)): 2 (6) n (%)
- Best overall response: ORR (All LGG patients (n = 32)): 3 (9) n (%)
- Best overall response: PD (All LGG patients (n = 32)): 7 (22) n (%)
- Best overall response: PR (All LGG patients (n = 32)): 3 (9) n (%)
- Best overall response: SD (All LGG patients (n = 32)): 18 (56) n (%)
- Best overall response: CR (Dose escalation LGG (n = 20)): 0 n (%)
- Best overall response: Non-CR/Non-PD (Dose escalation LGG (n = 20)): 1 (5) n (%)
- Best overall response: Non-evaluable (Dose escalation LGG (n = 20)): 0 n (%)
- Best overall response: Not available (Dose escalation LGG (n = 20)): 2 (10) n (%)
- Best overall response: ORR (Dose escalation LGG (n = 20)): 2 (10) n (%)
- Best overall response: PD (Dose escalation LGG (n = 20)): 5 (25) n (%)
- Best overall response: PR (Dose escalation LGG (n = 20)): 2 (10) n (%)
- Best overall response: SD (Dose escalation LGG (n = 20)): 10 (50) n (%)
- Best overall response: CR [1]: 0 n (%)
- Best overall response: Non-CR/Non-PD [1]: 0 n (%)
- Best overall response: Non-evaluable [1]: 0 n (%)
- Best overall response: Not available [1]: 0 n (%)
- Best overall response: ORR [1]: 0 n (%)
- Best overall response: PD [1]: 0 n (%)
- Best overall response: PR [1]: 0 n (%)
- Best overall response: SD [1]: 12 (100) n (%)
- Best overall response: CR (Expansion LGG (n = 12)): 0 n (%)
- Best overall response: Minor response per RANO criteria (Expansion LGG (n = 12)): 1 (8)^a n (%)
- Best overall response: Non-CR/Non-PD (Expansion LGG (n = 12)): 0 n (%)
- Best overall response: Non-evaluable (Expansion LGG (n = 12)): 1 (8) n (%)
- Best overall response: Not available (Expansion LGG (n = 12)): 0 n (%)
- Best overall response: ORR (Expansion LGG (n = 12)): 1 (8) n (%)
- Best overall response: PD (Expansion LGG (n = 12)): 2 (17) n (%)
- Best overall response: PR (Expansion LGG (n = 12)): 1 (8) n (%)
- Best overall response: SD (Expansion LGG (n = 12)): 8 (67) n (%)
- Best overall response: CR (Overall population (n = 56)): 0 n (%)
- Best overall response: Non-CR/Non-PD (Overall population (n = 56)): 1 (2) n (%)
- Best overall response: Non-evaluable (Overall population (n = 56)): 2 (4) n (%)
- Best overall response: Not available (Overall population (n = 56)): 4 (7) n (%)
- Best overall response: ORR (Overall population (n = 56)): 3 (5) n (%)
- Best overall response: PR (Overall population (n = 56)): 3 (5) n (%)
- Best overall response: SD (Overall population (n = 56)): 33 (59) n (%)
- Median DoR (in vivo): not reached
- Median duration of stable disease (overall): 11.0 months
- Non-evaluable (overall): 4%
- Median OS (overall population): not reached
- Overall response rate (overall, 3/56, all partial responses in LGG): 5.4%
- Partial response (PR) (overall, 3/56 patients, all with LGG): 5%
- Stable disease (overall, 33/56): 59%
